Measured values: the NIST ThermoML archive (doi:10.1016/j.fluid.2012.06.031)
Numbers after ± are expanded uncertainties.

Key:
[1] = 298.15 K; 101.33 kPa; Liquid; Pycnometric method
[2] = refractive index (Na D-line) (dimensionless); conditions: 298.15 K; 101.33 kPa; Liquid; Standard Abbe refractometry
[3] = excess molar enthalpy (molar enthalpy of mixing); xn = mol fraction of the nth substance listed; conditions: 298.15 K, 101 kPa, Liquid, solution calorimetry
[4] = refractive index (Na D-line) (dimensionless); xn = mol fraction of the nth substance listed; conditions: 298.15 K, 101 kPa, Liquid, Standard Abbe refractometry
[5] = xn = mol fraction of the nth substance listed; conditions: 298.15 K, 101 kPa, Liquid, Pycnometric method

CC(C)CC(C)(C)C [2,2,4-trimethylpentane]
Conditions	mass density [kg/m3]	refractive index
[1]	687.9 ± 0.56	–
[2]	–	1.3889 ± 0.0007

CC(C)CC(C)(C)C [2,2,4-trimethylpentane] + CCCCO
Conditions	excess molar enthalpy, [3] [kcal/mol]	mass density, [5] [kg/m3]	refractive index, [4]
x2 = 0.05	0.0947 ± 0.00098	–	–
x2 = 0.0501	–	690.95 ± 0.56	1.38897 ± 0.00046
x2 = 0.1	0.1201 ± 0.00115	–	–
x2 = 0.1001	–	694.28 ± 0.56	1.38909 ± 0.00045
x2 = 0.1501	–	697.81 ± 0.56	1.38925 ± 0.00045
x2 = 0.1502	0.1362 ± 0.00124	–	–
x2 = 0.2	0.1404 ± 0.00127	701.56 ± 0.56	1.38946 ± 0.00045
x2 = 0.2995	0.1489 ± 0.00134	–	–
x2 = 0.3001	–	709.77 ± 0.57	1.38999 ± 0.00044
x2 = 0.3999	–	718.98 ± 0.57	1.39067 ± 0.00044
x2 = 0.4	0.1503 ± 0.00134	–	–
x2 = 0.5	–	729.4 ± 0.57	1.39149 ± 0.00043
x2 = 0.5001	0.1419 ± 0.00129	–	–
x2 = 0.5999	–	741.16 ± 0.58	1.39244 ± 0.00043
x2 = 0.6002	0.1233 ± 0.00115	–	–
x2 = 0.6999	–	754.51 ± 0.59	1.3935 ± 0.00042
x2 = 0.7	0.0968 ± 0.00098	–	–
x2 = 0.8	0.0686 ± 0.000837	769.68 ± 0.59	1.39466 ± 0.00042
x2 = 0.8499	0.0532 ± 0.000741	–	–
x2 = 0.85	–	778.03 ± 0.6	1.39527 ± 0.00042
x2 = 0.9	0.0359 ± 0.000669	786.94 ± 0.6	1.3959 ± 0.00042
x2 = 0.9499	0.0188 ± 0.000598	–	–
x2 = 0.95	–	796.46 ± 0.61	1.39654 ± 0.00042

CC(C)CC(C)(C)C [2,2,4-trimethylpentane] + CCCO
Conditions	excess molar enthalpy, [3] [kcal/mol]	mass density, [5] [kg/m3]	refractive index, [4]
x2 = 0.0502	–	689.82 ± 0.56	1.3885 ± 0.00045
x2 = 0.0516	0.0974 ± 0.001	–	–
x2 = 0.1	0.1255 ± 0.00117	–	–
x2 = 0.1002	–	692.19 ± 0.56	1.38816 ± 0.00045
x2 = 0.15	0.1338 ± 0.00122	–	–
x2 = 0.1504	–	694.9 ± 0.56	1.38785 ± 0.00045
x2 = 0.1999	–	697.87 ± 0.56	1.38759 ± 0.00044
x2 = 0.2001	0.1457 ± 0.00131	–	–
x2 = 0.3	–	704.65 ± 0.56	1.38712 ± 0.00044
x2 = 0.3001	0.1564 ± 0.00139	–	–
x2 = 0.3999	–	712.46 ± 0.56	1.38669 ± 0.00043
x2 = 0.4001	0.1561 ± 0.00139	–	–
x2 = 0.5	–	721.44 ± 0.56	1.38627 ± 0.00043
x2 = 0.5002	0.144 ± 0.00129	–	–
x2 = 0.6001	0.1255 ± 0.00117	731.85 ± 0.57	1.3858 ± 0.00042
x2 = 0.7	–	744.14 ± 0.58	1.38526 ± 0.00042
x2 = 0.7048	0.0969 ± 0.00098	–	–
x2 = 0.7999	–	758.95 ± 0.58	1.38462 ± 0.00042
x2 = 0.8	0.0709 ± 0.000837	–	–
x2 = 0.85	0.0561 ± 0.000765	767.56 ± 0.59	1.38426 ± 0.00042
x2 = 0.8998	0.0388 ± 0.000669	–	–
x2 = 0.9	–	777.1 ± 0.6	1.38387 ± 0.00041
x2 = 0.9499	0.0204 ± 0.000598	–	–
x2 = 0.9501	–	787.71 ± 0.6	1.38345 ± 0.00041

CCCCO [butan-1-ol]
Conditions	mass density [kg/m3]	refractive index
[1]	805.8 ± 0.62	–
[2]	–	1.3974 ± 0.0007

CCCCCO [pentan-1-ol]
Conditions	mass density [kg/m3]	refractive index
[1]	810.8 ± 0.66	–
[2]	–	1.4078 ± 0.0007

CCCCCO [pentan-1-ol] + CC(C)CC(C)(C)C
Conditions	excess molar enthalpy, [3] [kcal/mol]	mass density, [5] [kg/m3]	refractive index, [4]
x1 = 0.05	0.09 ± 0.000956	–	–
x1 = 0.0501	–	691.14 ± 0.56	1.38936 ± 0.00046
x1 = 0.0998	0.1135 ± 0.0011	–	–
x1 = 0.1	–	695.2 ± 0.57	1.38993 ± 0.00046
x1 = 0.1499	–	699.5 ± 0.57	1.39059 ± 0.00046
x1 = 0.15	0.127 ± 0.00117	–	–
x1 = 0.1996	0.1326 ± 0.00122	–	–
x1 = 0.2017	–	704.19 ± 0.57	1.39135 ± 0.00046
x1 = 0.2997	0.1439 ± 0.00129	–	–
x1 = 0.3001	–	713.84 ± 0.58	1.39297 ± 0.00046
x1 = 0.3999	0.1413 ± 0.00129	–	–
x1 = 0.4	–	724.6 ± 0.59	1.39478 ± 0.00046
x1 = 0.4998	0.1317 ± 0.00122	–	–
x1 = 0.5001	–	736.36 ± 0.6	1.3967 ± 0.00046
x1 = 0.5999	0.109 ± 0.00108	–	–
x1 = 0.6001	–	749.12 ± 0.61	1.3987 ± 0.00046
x1 = 0.7	0.091 ± 0.000956	762.91 ± 0.62	1.40077 ± 0.00046
x1 = 0.7999	–	777.72 ± 0.63	1.40293 ± 0.00046
x1 = 0.8	0.063 ± 0.000789	–	–
x1 = 0.85	0.0472 ± 0.000717	785.54 ± 0.64	1.40407 ± 0.00046
x1 = 0.9	0.0321 ± 0.000645	793.63 ± 0.65	1.40525 ± 0.00046
x1 = 0.95	0.015 ± 0.000574	801.98 ± 0.65	1.40649 ± 0.00046

CCCO [propan-1-ol]
Conditions	mass density [kg/m3]	refractive index
[1]	799.6 ± 0.61	–
[2]	–	1.3832 ± 0.0007
